Source: PubChem BioAssay (NCI)
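Five compound concentrations were applied to cells in 96-well plates for 48 hours; endpoints were derived by simple linear interpolation of the resulting dose-response curve. GI50 is the concentration that inhibits growth by half. TGI: concentration producing complete growth inhibition.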

Tests used:
Assay in all cases: growth of human tumour cells (NCI), 48 h
HOP-62 NSCLC = tested on: HOP-62 NSCLC
MALME-3M melanoma = tested on: MALME-3M melanoma
OVCAR-8 ovarian = tested on: OVCAR-8 ovarian
SK-MEL-5 melanoma = tested on: SK-MEL-5 melanoma
SF-539 CNS = tested on: SF-539 CNS
A498 renal = tested on: A498 renal
OVCAR-4 ovarian = tested on: OVCAR-4 ovarian
MDA-MB-435 = tested on: MDA-MB-435
T-47D breast = tested on: T-47D breast
DU-145 prostate = tested on: DU-145 prostate

Structure (SMILES) | TGI (HOP-62 NSCLC) | TGI (MALME-3M melanoma) | TGI (OVCAR-8 ovarian) | TGI (SK-MEL-5 melanoma) | TGI (SF-539 CNS) | TGI (A498 renal) | TGI (OVCAR-4 ovarian) | GI50 (HOP-62 NSCLC) | GI50 (MALME-3M melanoma) | GI50 (MDA-MB-435) | TGI (MDA-MB-435) | GI50 (OVCAR-8 ovarian) | GI50 (T-47D breast) | TGI (T-47D breast) | GI50 (DU-145 prostate) | TGI (DU-145 prostate) | GI50 (SK-MEL-5 melanoma) | GI50 (OVCAR-4 ovarian) | GI50 (SF-539 CNS) | GI50 (A498 renal)
Cc1[nH]c2cc([N+](=O)[O-])ccc2c1[N+](=O)[O-] | 32.8 µM | 54.4 µM | 79.8 µM | 27.6 µM | 57.1 µM | 50.4 µM | 92 µM |  |  |  |  |  |  |  |  |  |  |  |  | 
CN1CCN(c2nc(N)c(Br)c(Cl)n2)CC1 | > 100 µM | > 100 µM | > 100 µM | > 100 µM |  |  | > 100 µM |  |  |  |  |  |  |  |  |  |  |  |  | 
O=C(CCc1ccccc1)CC1OC(=O)C(Cl)=C1Cl (stereo unspecified) | 55.6 µM | 33.1 µM | 41 µM | 47 µM | 76.7 µM | 66.2 µM | > 100 µM |  |  |  |  |  |  |  |  |  |  |  |  | 
CC(=O)Nc1ccc(/C=c2\sc3nnc(-c4cccnc4)n3c2=O)cc1 | 52.6 µM | 37.3 µM | 32.1 µM | 37.8 µM | 33.3 µM | > 100 µM | 30.7 µM |  |  |  |  |  |  |  |  |  |  |  |  | 
CC1=C(C(=O)Nc2ccc(Cl)c(Cl)c2)C(c2cccc(Cl)c2)NC(=S)N1 (stereo unspecified) | 19.2 µM | 29.8 µM | 31.7 µM | 4.32 µM |  |  | 42.5 µM | 10.3 µM | 10.9 µM | 14 µM | 45.1 µM | 12.4 µM | 31.5 µM | > 50 µM | 14.4 µM | 44 µM | 2 µM | 13.4 µM |  | 
Cc1ccc(S(=O)(=O)C2CC2(Cl)Cl)cc1 (stereo unspecified) |  | 48.8 µM | 41 µM |  | > 100 µM |  | 13.8 µM |  |  |  |  |  |  |  |  |  |  |  |  | 
CC(=O)CC(=O)Nc1ccccc1C(F)(F)F | > 100 µM | > 100 µM | > 100 µM | > 100 µM | > 100 µM | > 100 µM | > 100 µM |  |  |  |  |  |  |  |  |  |  |  |  | 
COc1ccc2c(c1)[n+]([O-])c(-c1ccccc1Cl)c(N)[n+]2[O-] | > 100 µM | > 100 µM | > 100 µM | > 100 µM | > 100 µM | > 100 µM | > 100 µM |  |  |  |  |  |  |  |  |  |  |  |  | 
Cc1ccc(-c2nc3sc(C)cn3c2/C=C2\C(=O)Nc3ccc(Cl)cc32)cc1 | 20.8 µM | 35.6 µM | 33.5 µM | 30.4 µM | 17.3 µM | 36 µM | 29.9 µM | 7.21 µM | 14.9 µM | 18 µM | 34.8 µM | 15.2 µM | 42.2 µM | > 100 µM |  |  | 15.5 µM | 14.5 µM | 4.51 µM | 16.3 µM
CSc1ccc(C(=O)/C=C/c2ccc(Cl)cc2Cl)cc1 | 37.5 µM | > 100 µM | 43.4 µM | 59 µM | 46.9 µM | 51.3 µM | 77.2 µM | 19.6 µM | 29.1 µM | 26.3 µM | 88.3 µM | 20.3 µM |  |  | 25.7 µM | 89.2 µM | 21.9 µM | 21.8 µM | 22 µM | 20.3 µM
O=C(N/C(=C\c1ccc(/C=C(\NC(=O)c2ccccc2)c2nc3c(O)nc(S)nc3[nH]2)cc1)c1nc2c(O)nc(S)nc2[nH]1)c1ccccc1 | > 100 µM | > 100 µM | > 100 µM | > 100 µM | > 100 µM | > 100 µM | > 100 µM |  |  |  |  |  |  |  |  |  |  |  |  | 
COc1ccc2nc3ccccc3c(NCCCCN(CCCl)CCCl)c2c1 | 24.8 µM | 0.725 µM | 0.625 µM | 3.37 µM | 1.26 µM | 4.21 µM | 0.542 µM |  |  |  | 21.4 µM |  |  | 13.8 µM |  |  |  |  |  | 
NC(=O)c1ncn(C2OC(CO)C(O)C2O)c1O (stereo unspecified) | > 100 µM | > 100 µM | > 100 µM |  | > 100 µM | > 100 µM | > 100 µM |  |  |  |  |  |  |  |  |  |  |  |  | 
N#Cc1ccc(C2SCc3nc4ccccc4n32)cc1 (stereo unspecified) | > 100 µM | > 100 µM | > 100 µM | > 100 µM | > 100 µM | > 100 µM | > 100 µM |  |  |  |  |  |  |  |  |  |  |  |  | 
CSc1nnc(C(C#N)C#N)nn1 | > 100 µM | > 100 µM | > 100 µM | > 100 µM | > 100 µM | > 100 µM | > 100 µM |  |  |  |  |  |  |  |  |  |  |  |  | 
CC1=C2C=CC(=O)C[C@@]2(C)CCC1 | > 100 µM | > 100 µM | > 100 µM | > 100 µM | > 100 µM | > 100 µM | > 100 µM |  |  |  |  |  |  |  |  |  |  |  |  | 

Structure (SMILES) | TGI (HOP-62 NSCLC) | TGI (MALME-3M melanoma) | TGI (OVCAR-8 ovarian) | TGI (SK-MEL-5 melanoma) | TGI (SF-539 CNS) | TGI (A498 renal) | TGI (OVCAR-4 ovarian) | GI50 (HOP-62 NSCLC) | GI50 (MALME-3M melanoma) | GI50 (MDA-MB-435) | TGI (MDA-MB-435) | GI50 (OVCAR-8 ovarian) | GI50 (T-47D breast) | TGI (T-47D breast) | GI50 (DU-145 prostate) | TGI (DU-145 prostate) | GI50 (SK-MEL-5 melanoma) | GI50 (OVCAR-4 ovarian) | GI50 (SF-539 CNS) | GI50 (A498 renal)
Cc1ccc(Nc2nc(-c3ccc(-c4ccc([N+](=O)[O-])cc4)o3)cs2)cc1 | > 100 µM | > 100 µM | > 100 µM |  | > 100 µM |  | > 100 µM |  |  |  |  |  |  |  |  |  |  |  |  | 
COC(=O)[C@@]12C3=NO[C@]1(C(=O)OC)C(O[Si](C)(C)C(C)(C)C)[C@@H](OC(C)=O)[C@@H](OC(C)=O)[C@@H]2[C@@H](OCc1ccccc1)CC3 (stereo partly specified) | > 100 µM | > 100 µM | > 100 µM | > 100 µM | > 100 µM | > 100 µM | > 100 µM |  |  |  |  |  |  |  |  |  |  |  |  | 
O=C1/C(=C/c2ccc(C(F)(F)F)cc2)COc2ccc(O)c(O)c21 | 3.41 µM | 3.3 µM | 2.96 µM | 3.21 µM | 2.46 µM | 4.16 µM | 2.72 µM | 1.65 µM | 1.55 µM | 1.26 µM | 2.68 µM | 0.846 µM |  |  | 1.6 µM | 3.19 µM | 1.73 µM | 1.39 µM | 1.14 µM | 2.11 µM
Cc1ccc(S(=O)(=O)NNS(C)(=O)=O)cc1 | > 100 µM | > 100 µM | > 100 µM | > 100 µM | > 100 µM |  | > 100 µM |  |  |  |  |  |  |  |  |  |  |  |  | 
CCN(CC)C(=S)SS(C)(=O)=O | 40.2 µM | 58.4 µM | 39.4 µM | 49.4 µM | 43.7 µM |  | 34.7 µM |  |  |  |  |  |  |  |  |  |  |  |  | 
CC(=O)[CH-]C(=O)c1ccccc1.CC(=O)[CH-]C(=O)c1ccccc1.CC(=O)[CH-]C(=O)c1ccccc1.[Ga+3] | 60.9 µM | 19.5 µM | 29.2 µM | 65.6 µM | 32.3 µM | 45.6 µM | 34.5 µM | 29 µM | 2.61 µM |  |  | 14.8 µM |  |  |  |  | 23.4 µM | 17.1 µM | 16.5 µM | 24.7 µM
O=C(CI)Nc1ccc(Br)cc1 | 3.82 µM | 4.29 µM | 5.95 µM | 15.4 µM | 3.67 µM | 33.1 µM | 7.25 µM | 1.89 µM | 2.1 µM | 2.04 µM | 4.7 µM | 2.46 µM |  |  | 1.77 µM | 3.18 µM | 3.95 µM | 2.92 µM | 1.81 µM | 16.3 µM
CC(=O)C1C(=O)C(=O)N(CCN2C(=O)C(=O)C(C(C)=O)C2=O)C1=O (stereo unspecified) | > 100 µM | > 100 µM | > 100 µM | > 100 µM | > 100 µM | > 100 µM | > 100 µM |  |  |  |  |  |  |  |  |  |  |  |  | 
CCOC(=O)C1C(=O)CC(=O)C2CCCCC21 (stereo unspecified) | > 100 µM | > 100 µM | > 100 µM | > 100 µM | > 100 µM | > 100 µM | > 100 µM |  |  |  |  |  |  |  |  |  |  |  |  | 
Cc1cc(N(CCNc2ccnc3cc(Cl)ccc23)Cc2ccc3c(c2)OCO3)nc(N2CCCC2)n1 | 10.2 µM | 3.54 µM | 5.01 µM | 3.21 µM | 3.09 µM | 3.94 µM | 3.24 µM | 1.86 µM | 1.89 µM | 1.62 µM | 3.18 µM | 1.91 µM | 1.93 µM | 5.44 µM |  |  | 1.76 µM | 1.39 µM | 1.6 µM | 1.61 µM
CN(C)N=Nc1ccc(S(N)(=O)=O)cc1 | > 100 µM | > 100 µM | > 100 µM | > 100 µM | > 100 µM | > 100 µM | > 100 µM |  |  |  |  |  |  |  |  |  |  |  |  | 
O=C1C(Cl)=C(NCCCN(CCCNC2=C(Cl)C(=O)c3ccccc3C2=O)C2=C(Cl)C(=O)c3ccccc3C2=O)C(=O)c2ccccc21 | 42.3 µM | 3.29 µM | 10.5 µM | 2.43 µM | 6.71 µM | 39.4 µM | 2.85 µM | 3.8 µM | 1.62 µM | 1.74 µM | 3.26 µM | 3 µM |  |  | 1.68 µM | 3.06 µM | 1.18 µM | 1.49 µM | 2.45 µM | 19.6 µM
CN(C)c1ccc2[nH]c3c(C(N)=O)cc(=O)c(=O)c=3oc2c1 | > 100 µM | 4.45 µM | > 100 µM | 3.55 µM | 4.43 µM | 9.5 µM | 6.42 µM | 2.42 µM | 1.81 µM |  |  | 1.05 µM | 1.81 µM | > 100 µM | 4.6 µM | > 100 µM | 1.8 µM | 1.67 µM | 0.428 µM | 2.68 µM
COc1ccc(C(=O)C(C(=O)C(=O)NCCCNC(=O)C(=O)C(C(=O)c2ccc(OC)cc2)c2ccc(OC)cc2)c2ccc(OC)cc2)cc1 (stereo unspecified) | > 100 µM | > 100 µM | > 100 µM |  | > 100 µM |  | > 100 µM |  |  |  |  |  |  |  |  |  |  |  |  | 
COC1/C(=C\C(C)=O)c2ccccc2N1C(C)=O (stereo unspecified) | > 100 µM |  | > 100 µM |  | > 100 µM | > 100 µM | > 100 µM |  |  |  |  |  |  |  |  |  |  |  |  | 
CCN1C(=O)N(CC)C2C1N=C(SC)N2/N=C/C=C/c1ccccc1OC (stereo unspecified) | > 45 µM | > 42.8 µM | > 45 µM | 1.51 µM | 1.69 µM | 1.9 µM | > 81.5 µM | 0.55 µM | 1.01 µM |  |  | 0.438 µM | > 32.8 µM | > 58.8 µM | 0.428 µM | > 45.3 µM | 0.365 µM | 1.55 µM | 0.315 µM | 0.285 µM
